Measurements as given in US20170252362A1, “METHODS & COMPOUNDS USEFUL IN HEMATOPOIETIC STEM CELL MEDICINE” (ECOLE POLYTECHNIQUE FEDERALE DE LAUSANNE (EPFL), priority 2014, published 2017).

Experiments:
[1] = test system: HSC activity of donor bone marrow; experiment: Transplantation of BM derived from agent-treated donor mice (engraftment, blood chimerism); type: in vivo, mouse; details: for short-term HSC activity of transplanted BM from treated donors (blood chimerism): Example 8, FIG. 9C, compared to control group
Source text: Therefore, NR-treatment is not expected to exhaust the LT-HSC population, which is often the problem when increasing short-term HSCs and their progeny.

[2] = test system: blood recovery and survival of transplanted mice; experiment: Survival and blood recovery of lethally irradiated, transplanted mice treated with the agent; type: in vivo, mouse; details: for blood recovery of post-transplanted mice (platelets, granulocytes/neutrophils): Example 8, FIG. 9D, treated recipients versus control
Method: Given the dependency of differentiated hematopoietic cells to the progenitor compartments, the effect of a mitochondrial membrane potential reducing agent according to the invention, in particular NR, in improving blood recovery and survival of transplanted mice was assessed. Peripheral blood count started at day 13 after transplantation, and it was repeated every 3 or 4 days.
(§1) C57Bl/6J and C57Bl/6J Ly5.1 were purchased from Charles River Laboratories International and maintained in micro-isolator cages. Mice were provided continuously with sterile food, water and bedding. Nicotinamide riboside (NR) (custom synthesized as triflate salt by Novalix in Strasbourg) was supplied in the food at 0.4 g/Kg mouse and mice were treated for 1 and 4 weeks respectively.

[3] = test system: LT-HSC:TMRM^low cells; details: 100 LT-HSC:TMRM^low cells, two days differentiation conditions with FCCP
Method: (§2) HSCs were cultured under ‘expansion’ conditions in U-bottom 96-well plates for five days. Cultures were maintained in Stemline II (Sigma) supplemented with 10 μg/ml Heparin (Sigma), 100 ng/ml SCF (R&D Systems), 2 ng/ml Flt3 ligand (R&D), 20 ng/ml TPO (R&D Systems), 10 ng/ml FGF-1 (Invitrogen), 500 ng/ml IGFBP2 (R&D Systems), 100 ng/ml AngL-3 (R&D Systems). At the end of the culture period cells were stained with TMRM and analyzed or sorted by flow cytometry. To induce differentiation, HSCs were cultured in basal medium (Stemline II containing 100 ng/ml SCF and 2 ng/ml Flt3 ligand) supplemented with 20 ng/ml IL-3 (R&D Systems) and 100 ng/ml IL-6 (R&D Systems).
(§3) In a first series of experiments, quantitative clonal differentiation assays (short- and long-term colony forming unit (CFU) assays as described above) were used to test to which extent mitochondrial uncoupling could influence the colony forming behavior and efficiency of hematopoietic stem and progenitor cells (FIG. 4A-C).
(§4) For some experiments, 5 or 10 μM Carbonyl cyanide 4-(trifluoromethoxy) phenylhydrazone (FCCP) (Sigma) was added at the medium. FCCP stock solution was prepared by dissolving the powder in ethanol at 10 mM concentration.

[4] = test system: whole bone marrow cells; details: differentiation conditions, two days with FCCP
Method: as §2, §3, §4

[5] = test system: HSCs; details: CFSE labeling, culture with FCCP
Method: Freshly sorted LT-HSCs were incubated for 20 min at 37° C. with 1:400 CFSE stock solution (Cayman chemicals; CFSE cell division assay kit). The cells were pelleted and re-suspended in 1 ml of Stemline II (Sigma) containing 10% FBS for 20 min at 37° C. Thereafter, the cells were washed twice with 1 ml of Stemline II (Sigma) and put in culture.

[6] = test system: cultured HSCs; details: flow cytometry
Method: NADH autofluorescence was measured by flow cytometry with UV laser (ex: 350 nm, em: 460 nm).
Specifically, culture conditions that would rapidly differentiate HSCs into highly proliferative MPPs were chosen and the effect of blocking the establishment of ΔΨm on the maintenance of stemness was investigated. For that purpose, trifluorocarbonylcyanide phenylhydrazone (FCCP) which permeabilizes the inner mitochondrial membrane and disrupts its potential was used as an uncoupling agent of the electron transport from ATP generation.

[7] = test system: LT-HSC:TMRM^low cells; details: five days differentiation condition (SCF, Flt3, IL-3, IL-6), 5 μM FCCP, progeny transplanted
Method: 100 LT-HSC:TMRM^low cells were cultured for five days under differentiation-inducing conditions in the presence or absence of 5 μM FCCP. Cell progeny were transplanted in lethally irradiated recipient mice together with 2*10^6 helper cells. Peripheral blood was collected at 4, 8 and 12 and 16 weeks to determine the level of chimerism as described above.
For transplants of HSC cultured exposed to the uncoupler FCCP, 100 LT-HSC:TMRM^low cells were cultured for five days under differentiation-inducing conditions in the presence or absence of 5 μM FCCP. Cell progeny were transplanted in lethally irradiated recipient mice together with 2*10^6 helper cells. Peripheral blood was collected at 4, 8 and 12 weeks to determine the level of chimerism.

[8] = test system: hematopoietic stem and progenitor pool sizes in the bone marrow; experiment: Flow cytometry analysis of hematopoietic stem and progenitor pool sizes in bone marrow of mice fed the agent; type: in vivo, mouse; details: for number of hematopoietic stem cells (ST-HSC / most primitive HSC) by flow cytometry: Example 8, one week treatment, FIG. 9A
Method: Bone marrow (BM) cells were isolated from C57Bl/6J and C57Bl/6J Ly5.1 from crushed femora and tibia. Flow cytometry analysis of hematopoietic stem and progenitor cells was performed on freshly isolated bone marrow (BM). Cell suspensions were filtered through a 70 μm cell strainer and erythroid cells were eliminated by incubation with red blood cells lysis buffer (eBioscences). Lineage-positive cells were removed with a magnetic lineage depletion kit (Miltenyi Biotech). Cell suspensions were stained with a panel of specific antibodies for stem and progenitor cells and analyzed or FACS-sorted respectively on a BD LSRII and BD FACS Aria II.
as §1

[9] = test system: hematopoietic progenitor compartments; experiment: Colony-forming functional assay (CFUs, Methocult) on BM derived from agent-treated mice; type: in vivo, mouse
[10] = test system: HSC mitochondrial activity; experiment: In vivo assay of HSC mitochondrial activity: TMRM flow cytometry of freshly isolated HSC from mice fed the compounds; design: species or system mouse
Source text: The effect of agents on HSC mitochondrial activity has been assessed by measuring mitochondrial activity in vivo: freshly isolated HSC from mice fed with the compounds were stained by TMRM and analyzed by flow cytometry.

[11] = test system: HSC mitochondrial activity; experiment: In vitro HSC mitochondrial activity with JC1 and TMRM dyes; type: cell-based, mouse
Source text: The effects of NR on HSC mitochondrial activity has been assessed by measuring mitochondrial activity using JC1 (Mantel et al., 2010, Cell Cycle, 9(10), 2008-17) and TMRM dyes (Vannini et al., 2015, in preparation; Nakada et al., 2010, Nature, 468, 653-658).
The effect of agents on HSC mitochondrial activity has been assessed by measuring mitochondrial activity as described in Example 7 above.

[12] = test system: HSCs; experiment: Single cell proliferation kinetics and division synchrony by time-lapse microscopy; type: cell-based, mouse; details: single cell level
Method: Furthermore, at single cell level the effect of NR on cell proliferation kinetics was determined as described previously ([…] et al., 2012, supra). […] To follow the behavior of HSCs at single cell level, cells were sorted directly into 96-well plates coated with microwell arrays. Microwells containing a single cell at the time of plating were tracked by time-lapse microscopy. Proliferation kinetics were assessed using a Zeiss Axio Observer microscope equipped with an incubator chamber, temperature and CO2 control. Images were automatically acquired every three hours over five days using the imaging analysis software of MetaMorph (Visitron, Germany). Hydrogel microwell arrays were directly casted within individual wells of a 96-well plate as described (Kobel et al., 2009, Langmuir, 25(15):8774-9; Lutolf et al., 2009, Integr Biol (Camb), 1(1):59-69). Briefly, stoichiometrically balanced aqueous solutions of multi-arm poly(ethylene glycol) (PEG), end-functionalized with thiol and vinylsulfone groups were mixed and molded against a PDMS microstamp. Upon completion of crosslinking, the stamp was removed and the hydrogel microwell array was hydrated overnight at 4° C. and then sterilized with ultraviolet light.

[13] = test system: human hematopoiesis; experiment: Human hematopoiesis in humanized NSG mice fed NR-supplemented diet; type: in vivo, human CD34+ cells in NSG mice; details: supplemented diet for one week
Source text: NOD scid gamma (NSG) mice which are a mouse strain NOD Cg-Prkdcscid Il2rgtm1Wjl/SzJ (005557) which correspond to a mutant mouse which combines the features of the NOD/ShiLtJ background (conferring a number of deficiencies in innate immunity), the severe combined immune deficiency mutation (SCID) and an IL2 receptor gamma chain deficiency which disables cytokine signaling, were purchased from The Jackson Laboratory and bred, treated, and maintained under pathogen-free conditions in-house. New-born NSG mice were irradiated with 1Gy and 6 hours later injected intra-hepatically (IH) with 10e6 human CD34 HSCs (purified CD34+ from mobilized blood, Cellsystems Biotechnologie GmbH, Troisdorf, DE). The level of human reconstitution (% of human CD45+ cells) was analyzed 12 weeks later by FACS staining of tail vein blood samples. […] From the following day one cohort was given low fat food supplemented with NR as compared to the group treated with NA or Acipimox (n=10-12 mice/group), as indicated above, and the other cohort was given control diet. After seven days, tail vein blood was collected in EDTA tubes and mice sacrificed. Bone marrow cells were collected as described for C57BL6 mice, and both blood and bone marrow cells stained and analyzed for a panel of human lineage specific antibodies as described. […]

[14] = test system: HSCs; experiment: In vivo activation of HSC by IFN-α, cell cycle (Ki67) and ΔΨm analysis; design: species or system mouse
Method: In order to verify this hypothesis, cell cycle phase analyses were performed using Ki67 and Hoechst staining as described below on freshly isolated HSCs that were separated into low and high ΔΨm. […] Under homeostatic conditions, quiescent state, corresponding to ca. 70% of cells, and cycling HSCs have indistinguishable ΔΨm profiles.
A similar analysis was performed on HSCs that were activated to exit dormancy directly in vivo using interferon-alpha (IFN-α) treatment of mice (Essers et al., 2009, Nature 458, 904-908) through subcutaneous injections of IFN-α carried out 48 and 24 hours prior to cell isolation.
HSC were activated to exit dormancy by interferon-alpha (IFN-α) treatment following published protocols (Essers et al., 2009, supra). Briefly, subcutaneous injections in C57B1/6J mice were carried out with 10,000 U of IFN-α (R&D systems) 48 and 24 hours prior to bone marrow extraction. Control mice were injected with an equivalent volume of the vehicle (PBS+0.1% BSA).

Compound: Cc1cnc(C(=O)O)c[n+]1[O-] [Acipimox, acipimox, reference compound]
- short-term HSC activity of transplanted BM from treated donors (blood chimerism) [1]: no significant difference
- blood recovery of post-transplanted mice (platelets, granulocytes/neutrophils) [2]: slower platelet and granulocyte recovery

Compound: N#CC(C#N)=NNc1ccc(OC(F)(F)F)cc1 [FCCP, Carbonyl cyanide 4-(trifluoromethoxy)phenylhydrazone]
- colonies derived from the most primitive cells (CFU-GEMM) [3]: concomitant increase
- frequency of colonies derived from the more committed progenitors (Mk, G, M and GM) [3]: striking decrease in the frequency of colonies
- total number of colonies ([4]; 15'000 whole bone marrow cells): striking decrease in the total number of colonies
- percentage of clonogenic multi-lineage colonies (CFU-GEMMs) ([4]; whole bone marrow cells): increase in the percentage of clonogenic multi-lineage colonies
- percentage of colonies derived from more committed progenitors (M, GM) ([4]; whole bone marrow cells): markedly decreased
- divisional history (induction of quiescence) [5]: all cells in culture are rapidly dividing several times
- NADH levels [6]: decreased NADH levels
- long-term multilineage blood reconstitution in recipient mice [7]: dramatically higher levels of long-term multilineage blood reconstitution

Compound: O=C(O)c1cccnc1 [NA, nicotinic acid, reference compound]
- number of hematopoietic stem cells (ST-HSC / most primitive HSC) by flow cytometry [8]: do not show a significant difference
- Megakaryocytes (MkE) colonies ([9]; Example 8, FIG. 9B): reduction of Megakaryocytes (MkE) colonies
- progenitor population / total and myeloid colonies in CFUs from BM of treated mice ([9]; Example 8, FIG. 9B): do not show a significant difference in total and myeloid colonies
- ability to reduce mitochondrial membrane potential in HSCs ([10]; mice fed with the compounds): not able to significantly reduce mitochondrial membrane potential in HSCs

Compound: NC(=O)c1ccc[n+]([C@@H]2O[C@H](CO)[C@@H](O)[C@H]2O)c1 [NR, nicotinamide riboside]
- hematopoietic stem and progenitor compartments in BM ([8]; 1 week treatment through the food, flow cytometry): increased cellularity is observed in all hematopoietic progenitor compartments
- hematopoietic progenitor compartments in BM ([8]; 4 weeks treatment through the food, flow cytometry): only the short-term compartment (ST-HSC) is expanded
- number of hematopoietic stem cells (ST-HSC / most primitive HSC) by flow cytometry [8]: expanded ST-HSC compartment
- HSC pool ([8]; short- and long-term treatment): not accompanied by a reduction of the HSC pool
- engraftment of BM derived from treated mice ([1]; 1-month treated donor mice, transplantation assay): do not show engraftment advantage
- short-term HSC activity of transplanted BM from treated donors (blood chimerism) [1]: higher ST-HSC activity
- colonies in CFUs assay from BM of treated mice ([9]; 1 and 4 weeks treatment, especially short-term treated mice): confirmed the expansion of hematopoietic progenitor compartments
- lineage of most striking colony increase ([9]; CFUs from BM of treated mice): most striking in the Mk lineage
- progenitor population / total and myeloid colonies in CFUs from BM of treated mice ([9]; Example 8, FIG. 9B): expanded progenitor population
- blood recovery of post-transplanted mice (platelets, granulocytes/neutrophils) [2]: faster exit of neutropenia and thrombocytopenia
- survival of transplanted mice ([2]; limiting-dose transplanted mice, all untreated mice died within one month): 80%
- exit of neutropenia (neutrophils >0.5 G/l) relative to controls ([2]; transplanted mice, on average): one week before controls
- recovery from severe thrombocytopenia (platelet count >100 G/l) earlier relative to control mice ([2]; transplanted mice, on average): 10 days
- neutrophil and platelet recovery ([2]; transplanted mice, peripheral blood counts from day 13): faster neutrophil and platelet recovery
- mitochondrial activity of HSCs ([11]; HSCs exposed in vitro, JC1 and TMRM): robust decrease in mitochondrial activity
- proportion of cells with low mitochondrial activity ([11]; dividing HSCs in vitro): raised the proportion of cells with low mitochondrial activity
- percentage of cells with high mitochondrial activity ([11]; in vitro, compared to control conditions): reduces the percentage of cells with high mitochondrial activity to half
- percentage of HSC daughters that maintain a low mitochondrial activity ([11]; in vitro, control about 5%): about 10%
- asynchronous division [12]: significant increase in asynchronous division
- proliferation kinetics [12]: do not have a major change in their proliferation kinetics
- human lymphocyte production [13]: significant increase in lymphocyte production
- human monocyte production [13]: trend towards increased monocyte production
- number of short-term HSCs with low mitochondrial activity ([10]; freshly isolated HSC from fed mice, TMRM, FIG. 12): able to push the number of short-term HSCs with low mitochondrial activity very significantly

Compound: IFN-α
- ΔΨm levels of quiescent versus cycling HSCs ([14]; after IFN-α treatment, MitoTracker Deep Red): not significantly different
- number of cycling (Ki67+) HSCs ([14]; subcutaneous injections 48 and 24 hours prior to cell isolation, control ca. 30): ~50%
